# Source: US8871679B2, “Fungicidal mixtures comprising substituted 1-methylpyrazol-4-ylcarboxanilides” (BASF SE, priority 2008, dated 2014)
# Like-named read-outs stand apart in the source and are kept apart here.
# Columns and labels:
# Assay type in all cases: cell-based
# [1] = test system: Pyricularia oryzae
# [2] = test system: Septoria tritici; experiment: Microtiter test, activity against leaf blotch on wheat caused by Septoria tritici (Use Example 3); conditions: for inhibition of growth at 16 ppm / inhibition of growth at 4 ppm / inhibition of growth at 63 ppm: Zymoseptoria tritici, 168 h, read-out: Observed efficacy
# [3] = test system: Alternaria solani; experiment: Microtiter test, activity against Alternaria solani (Use Example 4); conditions: 7 days
# [4] = test system: Leptosphaerium nodorum; experiment: Microtiter test, activity against Leptospharium nodorum (Use Example 6); conditions: compound alone, 7 days
# [5] = test system: Colletotrichum truncatum; experiment: Microtiter test, activity against Colletotrichum truncatum (Use Example 5); conditions: compound alone, 7 days
# [6] = test system: Fusarium culmorum; experiment: Microtiter test, activity against Fusarium culmorum (Use Example 7); conditions: compound alone, 7 days
# [7] = 0.016 ppm, compound alone, day 7
# [8] = 0.25 ppm, compound alone, day 7
# [9] = Alternaria solani, 168 h, read-out: Observed efficacy
# [10] = Alternaria solani, 168 h, 63 ppm, compound alone, read-out: Observed efficacy
compound,measurement,setting,value
"Cn1cc(C(=O)Nc2ccccc2-c2cc(F)c(F)c(F)c2)c(C(F)F)n1 [Ia, N-(3′,4′,5′-trifluorobiphenyl-2-yl)-3-difluoro-methyl-1-methyl-1H-pyrazole-4-carboxamide]",Observed efficacy,"[1]; 0.004 ppm, compound alone, day 7",3%
same,Observed efficacy,[2],29%
same,Observed efficacy,[3],29%
"CC(C)C1C2CCC1c1c(NC(=O)c3cn(C)nc3C(F)F)cccc12 (centres unmarked) [Isopyrazam, isopyrazam]",Observed efficacy,[4]; 0.25 ppm,13%
same,Observed efficacy,[1]; [7],15%
same,Observed efficacy,[2],58%
same,Observed efficacy,[5]; 0.25 ppm,14%
same,Observed efficacy,[3],2%
"Cn1cc(C(=O)Nc2ccc(F)cc2-c2ccc(Cl)c(Cl)c2)c(C(F)F)n1 [Bixafen, bixafen]",Observed efficacy,[4]; 0.25 ppm,16%
same,Observed efficacy,"[1]; 0.063 ppm, compound alone, day 7",6%
same,Observed efficacy,[1]; [8],6%
same,Observed efficacy,[2],48%
same,Observed efficacy,[5]; 0.25 ppm,6%
same,Observed efficacy,[3],0%
"CNC(=O)O/N=C/C(C)(C)SC [Aldicarb, aldicarb]",inhibition of growth at 16 ppm,[2],7%
"CCOCn1c(-c2ccc(Cl)cc2)c(C#N)c(Br)c1C(F)(F)F [Chlorfenapyr, chlorfenapyr]",Observed efficacy,[4]; 63 ppm,8%
same,Observed efficacy,"[1]; 4 ppm, compound alone, day 7",17%
same,Observed efficacy,"[1]; 63 ppm, compound alone, day 7",38%
same,inhibition of growth at 16 ppm,"[2]; 16 ppm, compound alone, day 7",8%
"CC(C)([CH2][Sn]([CH2]C(C)(C)c1ccccc1)([CH2]C(C)(C)c1ccccc1)[O][Sn]([CH2]C(C)(C)c1ccccc1)([CH2]C(C)(C)c1ccccc1)[CH2]C(C)(C)c1ccccc1)c1ccccc1 [Fenbutadin-oxyd, fenbutatin oxide]",Observed efficacy,[1],39%
"COP(=O)(NC(C)=O)SC (centres unmarked) [Acephate, acephate]",inhibition of growth at 4 ppm,[2],2%
same,inhibition of growth at 1 ppm,[3]; [9],3%
"CC1(C)[C@H](C(=O)O[C@H](C#N)c2cccc(Oc3ccccc3)c2)[C@@H]1C=C(Br)Br [Deltamethrin, deltamethrin]",Observed efficacy,"[1]; 4 ppm, compound alone, day 7",0%
same,inhibition of growth at 16 ppm,[2],0%
same,inhibition of growth at 63 ppm,[2],3%
same,inhibition of growth at 1 ppm,[3]; [9],0%
same,inhibition of growth at 4 ppm,[3]; [9],5%
same,inhibition of growth at 16 ppm,[3]; [9],0%
"COC(=O)N(C(=O)N1CO[C@@]2(C(=O)OC)Cc3cc(Cl)ccc3C2=N1)c1ccc(OC(F)(F)F)cc1 [Indoxacarb, indoxacarb]",Observed efficacy,"[1]; 1 ppm, compound alone, day 7",0%
same,Observed efficacy,"[2]; 16 ppm, compound alone, day 7",9%
same,Observed efficacy,"[2]; 63 ppm, compound alone, day 7",19%
same,Observed efficacy,"[3]; 16 ppm, compound alone",0%
abamectin,Observed efficacy,"[3]; 1 ppm, compound alone",2%
"CC1(C)CNC(=NN=C(/C=C/c2ccc(C(F)(F)F)cc2)/C=C/c2ccc(C(F)(F)F)cc2)NC1 [Hydramethylnon, hydramethylnon]",Observed efficacy,"[1]; 4 ppm, compound alone, day 7",5%
same,inhibition of growth at 16 ppm,[2],0%
same,inhibition of growth at 63 ppm,[2],4%
same,inhibition of growth at 1 ppm,[3]; [9],7%
"Cc1c(COC(=O)[C@@H]2[C@H](/C=C(\Cl)C(F)(F)F)C2(C)C)cccc1-c1ccccc1 (racemic) [Bifenthrin, bifenthrin]",inhibition of growth at 63 ppm,[3]; [10],1%
"Cc1nn(C)c(F)c1C(=O)Nc1ccccc1C(C)CC(C)C (centres unmarked) [Penflufen, N-[2-(1,3-dimethylbutyl)-phenyl]-1,3-dimethyl-5-fluor-1H-pyrazole-4-carboxamide]",Observed efficacy,[1]; [8],5%
same,Observed efficacy,[2],44%
same,Observed efficacy,[3],0%
"COP(N)(=O)SC (centres unmarked) [Methamidophos, methamidophos]",inhibition of growth at 4 ppm,[2],5%
same,inhibition of growth at 1 ppm,[3]; [9],8%
same,inhibition of growth at 63 ppm,[3]; [9],0%
"CNC(=O)CSP(=S)(OC)OC [Dimethoate, dimethoate]",inhibition of growth at 4 ppm,[2],2%
"Cn1cc(C(=O)Nc2ccccc2C2CC2C2CC2)c(C(F)F)n1 (single isomer, unassigned) [Sedaxane (trans diastereoisomer), N-(trans-2-bicycloprop-2-ylphenyl)-3-difluoromethyl-1-methyl-1H-pyrazole-4-carboxamide]",Observed efficacy,[4]; 0.25 ppm,17%
same,Observed efficacy,[1]; [7],1%
same,Observed efficacy,[2]; [8],57%
same,Observed efficacy,[6]; 0.25 ppm,2%
same,Observed efficacy,[5]; 0.25 ppm,3%
same,Observed efficacy,"[3]; 0.063 ppm, compound alone",0%
same,Observed efficacy,"[3]; 0.25 ppm, compound alone",20%
"O=S1OCC2C(CO1)C1(Cl)C(Cl)=C(Cl)C2(Cl)C1(Cl)Cl (centres unmarked) [Endosulfan, endosulfan]",Observed efficacy,[4]; 63 ppm,5%
same,Observed efficacy,"[1]; 16 ppm, compound alone, day 7",22%
same,Observed efficacy,"[1]; 63 ppm, compound alone, day 7",73%
same,inhibition of growth at 16 ppm,[2],3%
same,inhibition of growth at 63 ppm,[2],26%
same,Observed efficacy,[5]; 63 ppm,8%
same,inhibition of growth at 16 ppm,[3]; [9],13%
"CC1(C)[C@H](C(=O)O[C@H](C#N)c2cccc(Oc3ccccc3)c2)[C@@H]1/C=C(\Cl)C(F)(F)F (racemic) [lambda-Cyalothrin, lambda-cyhalothrin]",inhibition of growth at 16 ppm,"[2]; 16 ppm, compound alone, day 7",10%
same,inhibition of growth at 63 ppm,"[2]; 63 ppm, compound alone, day 7",29%
"Cc1cc(C(F)(C(F)(F)F)C(F)(F)F)ccc1NC(=O)c1cccc(I)c1C(=O)NC(C)(C)CS(C)(=O)=O [Flubendiamid, flubendiamide]",Observed efficacy,[4]; 63 ppm,22%
same,Observed efficacy,"[1]; 4 ppm, compound alone, day 7",0%
same,Observed efficacy,"[1]; 63 ppm, compound alone, day 7",15%
same,inhibition of growth at 63 ppm,"[2]; 63 ppm, compound alone, day 7",37%
same,Observed efficacy,[6]; 63 ppm,3%
same,Observed efficacy,[5]; 63 ppm,0%
same,inhibition of growth at 63 ppm,[3]; [10],0%
"CC1(C)C(C=C(Cl)Cl)C1C(=O)OC(C#N)c1cccc(Oc2ccccc2)c1 (stereo not drawn) [alpha-Cypermethrin, alpha-cypermethrin]",Observed efficacy,"[1]; 63 ppm, compound alone, day 7",41%
same,inhibition of growth at 63 ppm,[3]; [9],0%
"CCOP(=S)(OCC)SCSC(C)(C)C [Terbufos, terbufos]",inhibition of growth at 16 ppm,[2],14%
